These results are taken from US8304206B2, “Mass spectrometry assays for identifying compounds that activate deacetylases” (Sirtris Pharmaceuticals, Inc., priority 2005, dated 2012).

Like-named read-outs stand apart in the source and are kept apart here. No end group written: not given here.

One test deals with NCI-H358 cells. The test is described as follows: Western blot of mitochondrial mass biomarkers. In kind it is cell-based, human. As to conditions: 48 hours; 0, 1, 10 or 100 uM. The method, then: Western blots were conducted to correlate an observed increase in cellular ATP levels upon exposure of cells to a sirtuin activating compound to an increase in mitochondrial mass. […] Cell lysates were then prepared and specific mitochondrial proteins were quantitated by western analysis using antibodies specific to the following proteins: Succinate-Ubiquinol Oxidoreductase (Mitochondrial Complex II Protein, mouse monoclonal, InVitrogen, Cat. #A11142); ATP synthase F1F0 (Mitochondrial Complex V Protein, mouse monoclonal, InVitrogen, Cat.# A21350); NADH-Ubiquinol Oxidoreductase (Mitochondrial Complex I Protein, mouse monoclonal, InVitrogen, Cat. #A21344). Normalization was to alpha tubulin using a rabbit polyclonal (Santa Cruz Biotech, Cat # SC-9104). Secondary antibody used for specific protein detection was AlexaFluor 680 conjugated […] IgG (Goat) (Rockland Immunochemicals, Cat.#610-132-121) and for tubulin expression was IRDye 800 goat anti-mouse IgG (InVitrogen Cat. # A21076). Protein quantification was preformed using infrared dye labeled secondary antibodies followed by blot scan using the Licor® Odyssey® scanner.

The target of test [1] is T1, SIRT1 (Homo sapiens, UniProt Q96EB6).
T1 sequence (Q96EB6 1-747): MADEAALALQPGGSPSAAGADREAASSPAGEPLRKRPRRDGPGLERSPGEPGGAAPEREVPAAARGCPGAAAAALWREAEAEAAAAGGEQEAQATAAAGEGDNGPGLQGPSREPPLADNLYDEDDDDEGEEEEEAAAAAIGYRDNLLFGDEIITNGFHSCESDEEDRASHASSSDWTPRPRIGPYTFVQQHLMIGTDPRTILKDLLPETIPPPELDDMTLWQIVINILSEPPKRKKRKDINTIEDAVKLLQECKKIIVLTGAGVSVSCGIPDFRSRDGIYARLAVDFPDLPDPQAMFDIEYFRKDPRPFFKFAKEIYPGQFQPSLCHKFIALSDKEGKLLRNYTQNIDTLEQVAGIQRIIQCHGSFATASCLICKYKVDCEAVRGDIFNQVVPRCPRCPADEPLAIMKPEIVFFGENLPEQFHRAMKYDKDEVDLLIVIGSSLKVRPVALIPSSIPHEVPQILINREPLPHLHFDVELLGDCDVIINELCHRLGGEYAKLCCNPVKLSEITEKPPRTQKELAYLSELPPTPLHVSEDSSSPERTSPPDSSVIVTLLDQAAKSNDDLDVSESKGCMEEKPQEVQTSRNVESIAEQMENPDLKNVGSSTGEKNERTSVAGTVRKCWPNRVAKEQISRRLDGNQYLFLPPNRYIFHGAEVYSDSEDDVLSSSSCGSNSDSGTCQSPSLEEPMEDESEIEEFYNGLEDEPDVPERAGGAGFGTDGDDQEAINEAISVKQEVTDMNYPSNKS
The test is described as follows: Effect of compounds on the Km of SIRT1 for Acetylated Peptide Substrate (mass spectrometry). As to conditions: vs DMSO Km. Format: biochemical.

Test [2] addresses T2, Sirt2 (Homo sapiens, UniProt Q8IXJ6).
T2 sequence (Q8IXJ6 1-389): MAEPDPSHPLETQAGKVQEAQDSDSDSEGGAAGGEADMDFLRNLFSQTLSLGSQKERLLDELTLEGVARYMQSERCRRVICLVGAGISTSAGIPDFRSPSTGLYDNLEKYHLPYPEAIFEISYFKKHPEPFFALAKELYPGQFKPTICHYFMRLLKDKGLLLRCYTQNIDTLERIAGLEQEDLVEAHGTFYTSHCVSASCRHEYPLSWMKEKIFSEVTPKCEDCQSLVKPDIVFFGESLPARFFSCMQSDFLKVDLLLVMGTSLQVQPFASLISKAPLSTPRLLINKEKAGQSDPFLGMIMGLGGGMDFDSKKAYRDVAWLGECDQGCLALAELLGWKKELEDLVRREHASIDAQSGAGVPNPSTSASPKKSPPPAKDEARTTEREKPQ
As to conditions: Sirt2, Fluorescent, cited from earlier work.

Another test addresses T3, Sirt3 (Homo sapiens, UniProt Q9NTG7).
T3 sequence (Q9NTG7 1-399): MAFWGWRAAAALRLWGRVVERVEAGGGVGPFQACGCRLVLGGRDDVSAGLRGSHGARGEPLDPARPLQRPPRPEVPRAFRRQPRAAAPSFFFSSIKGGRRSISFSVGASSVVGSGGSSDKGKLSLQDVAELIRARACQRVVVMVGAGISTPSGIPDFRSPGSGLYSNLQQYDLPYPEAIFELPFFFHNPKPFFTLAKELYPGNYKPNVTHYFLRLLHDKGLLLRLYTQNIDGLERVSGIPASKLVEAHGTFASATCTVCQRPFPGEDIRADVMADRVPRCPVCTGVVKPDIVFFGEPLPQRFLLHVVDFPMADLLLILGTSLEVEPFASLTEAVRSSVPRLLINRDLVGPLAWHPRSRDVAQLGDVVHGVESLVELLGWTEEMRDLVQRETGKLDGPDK
As to conditions: Sirt3, Fluorescent, cited from earlier work.

The target of test [3] is T1, SIRT1. As to conditions: Sirt1, Fluorescent, cited from earlier work.
The target in test [4] is T1, SIRT1. As to conditions: Sirt1, Nicotinamide release; peptide p53 19 mer (aa 368-386) no FL; read-out: NAD Km; cited from earlier work.
Test [5] has as its target T1, SIRT1. As to conditions: Sirt1, FRET; peptide p53 20 mer (aa 372-387) *FL; read-out: NAD Km; cited from earlier work.
Test [6] deals with T1, SIRT1. The test can be described thus: SIRT1 Km for NAD+ (mass spectrometry). In kind it is biochemical. As to conditions: 50 μM Acetylated Peptide Substrate, 1% DMSO.
In test [7] the target is T1, SIRT1. As to conditions: Sirt1, Nicotinamide release, read-out: NAD Km, cited from earlier work.
Test [8] has as its target T2, Sirt2. As to conditions: Sirt2, FRET; peptide p53 20 mer (aa 372-387) *FL; read-out: NAD Km; cited from earlier work.
[9] abbreviates: peptide p53 (aa 317-320) *FL, read-out: NAD Km.

For the compound `Oc1ccc(C=Cc2cc(O)cc(O)c2)cc1` [resveratrol], in the test on NCI-H358 cells, the “levels of mitochondrial mass biomarkers” value was “increases in the levels of mitochondrial mass biomarkers”. Further, the “decrease of Km for peptide substrate” value was found to be 2% at SIRT1 [1] (1.2 μM resveratrol); 14% at SIRT1 [1] (3.7 μM resveratrol); 14% at SIRT1 [1] (11 μM resveratrol); 32% at SIRT1 [1] (33 μM resveratrol); 46% at SIRT1 [1] (100 μM resveratrol).
What is called Km is the substrate concentration at which the rate is half of its maximum. For the compound “p53 (aa 317-320) *FL (QPKK; also: fluorescent label; UniProt P04637 317-320, looked up, fragment)”, the Km in the test with Sirt2 [2] (read-out: Peptide Km) is 186 µM; with Sirt3 (read-out: Peptide Km) it was 32 µM.
Regarding “p53 (aa 379-382) *FL (RHKK(Ac); not fully specified (C-terminus); printed as Arg-His-Lys-Lys; also: fluorescent label; UniProt P04637 379-382, looked up, fragment)”, the Km with SIRT1 [3] (read-out: Peptide Km) was 64 µM.
On to `NC(=O)c1ccc[n+]([C@@H]2O[C@H](COP(=O)([O-])OP(=O)(O)OC[C@H]3O[C@@H](n4cnc5c(N)ncnc54)[C@H](O)[C@@H]3O)[C@@H](O)[C@H]2O)c1` [NAD^+], for which the Michaelis constant (Km) on Sirt2 [2] (setting [9]) was 547 µM; at Sirt3 (setting [9]), 2030 µM; on SIRT1 [4] it was 133 µM; on SIRT1 [5] it was 90 µM; at SIRT1 [6] it was 220 µM; on SIRT1 [3] (peptide p53 (aa 379-382) *FL, read-out: NAD Km), 558 µM. The Michaelis constant (Km) was 192 µM at SIRT1 [7] (peptide p53 (aa 368-386) *FL), 132 µM at SIRT1 [7] (peptide p53 (aa 368-386) no FL) and 42 µM at Sirt2 [8].
